Test results published in patent US12139520B2 (priority 2020, dated 2024).
Bridge positions count the residues as written; N and C are the ends. Square brackets hold non-standard residues; d marks the D form. Peptide text beside a SMILES is read from it. Hyp = O=C(O)[C@@H]1C[C@@H](O)CN1

What was measured:
hAMY3 receptor = biological target: T1, hAMY3 receptor (Homo sapiens, UniProt O60896+P30988); test: cAMP assay for in vitro receptor activation, hAMY3-R; assay type: cell-based; conditions: cAMP assay, hAMY3 receptor; read-out: hAMY3R EC50
T1 sequence (P30988 25-474): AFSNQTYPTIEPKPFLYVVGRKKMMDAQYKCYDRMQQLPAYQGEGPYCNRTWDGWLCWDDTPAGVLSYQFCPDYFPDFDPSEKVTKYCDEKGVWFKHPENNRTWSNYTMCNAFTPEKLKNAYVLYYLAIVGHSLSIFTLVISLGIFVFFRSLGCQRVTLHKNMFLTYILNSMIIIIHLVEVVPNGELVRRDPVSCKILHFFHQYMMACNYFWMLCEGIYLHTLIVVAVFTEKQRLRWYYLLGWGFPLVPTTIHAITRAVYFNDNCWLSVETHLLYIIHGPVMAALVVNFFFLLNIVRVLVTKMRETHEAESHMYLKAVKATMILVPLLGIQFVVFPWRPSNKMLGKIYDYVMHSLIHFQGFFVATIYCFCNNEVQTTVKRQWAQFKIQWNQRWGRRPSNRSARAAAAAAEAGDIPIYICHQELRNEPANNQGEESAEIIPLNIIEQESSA
T1 sequence (O60896 24-148 partner): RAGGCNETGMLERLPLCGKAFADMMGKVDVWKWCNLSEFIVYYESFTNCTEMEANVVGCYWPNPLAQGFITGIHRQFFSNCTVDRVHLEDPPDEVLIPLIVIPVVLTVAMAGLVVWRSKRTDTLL
How it was run: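 Monoclonal cell line stably overexpressing human AMY3 receptor, 2000 cells/well in DPBS with 0.05% casein and 0.5 mM IBMX. Stimulated 30 min at room temperature with graded compound doses, human amylin as positive control. cAMP accumulation read by TR-FRET after one hour.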

[1] = Physical stability of peptide analogues (Thioflavin T fibrillation); assay type: physicochemical; conditions: maximum ThT signal normalized between hAMY maximum and buffer background; 40° C., shaking, four days; pH 7 per table title
How it was run: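 Maximum ThT emission at 480 nm, after LOESS smoothing, is given as percent of the span from buffer background to hAMY. Conditions: 50 mM buffer at pH 4 or 7, 4 μM dye, 40 °C, repeated shaking, readings every 10 min for four days.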

CC[C@H](C)[C@H](NC(=O)[C@H](CCC(N)=O)NC(=O)[C@H](Cc1c[nH]cn1)NC(=O)[C@H](C)NC(=O)[C@H](CC(C)C)NC(=O)[C@H](CCCNC(=N)N)NC(=O)[C@H](CCC(N)=O)NC(=O)[C@@H](NC(=O)[C@@H](NC(=O)[C@@H]1CSSC[C@H](NC(=O)CN)C(=O)N[C@@H](CCCNC(=N)N)C(=O)N[C@@H](Cc2ccccc2)C(=O)NCC(=O)N[C@@H]([C@@H](C)O)C(=O)N1)[C@@H](C)O)C(C)C)C(=O)N[C@@H](Cc1ccc(O)cc1)C(=O)N[C@@H](CCC(N)=O)C(=O)N[C@@H](Cc1ccccc1)C(=O)N[C@H](C(=O)N[C@@H](CC(=O)O)C(=O)N[C@@H](CCCCN)C(=O)N[C@@H](CC(=O)O)C(=O)N[C@@H](CCCCN)C(=O)N[C@@H](CC(=O)O)C(=O)N[C@@H](CC(N)=O)C(=O)N[C@H](C(=O)N[C@@H](C)C(=O)N1CCC[C@H]1C(=O)N[C@@H](CCCNC(=N)N)C(=O)N[C@@H](CO)C(=O)N[C@@H](CC(N)=O)C(=O)N[C@H](C(=O)N[C@@H](CO)C(=O)N1CCC[C@H]1C(=O)N[C@@H](CCC(N)=O)C(=O)NCC(=O)N[C@@H](Cc1ccc(O)cc1)C(N)=O)C(C)C)C(C)C)[C@@H](C)O [compound 131] (H-GCRFGTCTVQRLAHQIYQFTDKDKDNVAPRSNVSPQGY-NH2; disulfide 2-7)
EC50 (hAMY3 receptor): 0.031 nM
Max ThT signal (%) [1]: 6.800%

CC[C@H](C)[C@H](NC(=O)[C@H](CCC(N)=O)NC(=O)[C@H](Cc1c[nH]cn1)NC(=O)[C@H](C)NC(=O)[C@H](CC(C)C)NC(=O)[C@H](CCCNC(=N)N)NC(=O)[C@H](CCC(N)=O)NC(=O)[C@@H](NC(=O)[C@@H](NC(=O)[C@@H]1CSSC[C@H](NC(=O)CN)C(=O)N[C@@H](CCCNC(=N)N)C(=O)N[C@@H](Cc2ccccc2)C(=O)NCC(=O)N[C@@H]([C@@H](C)O)C(=O)N1)[C@@H](C)O)C(C)C)C(=O)N[C@@H](Cc1ccc(O)cc1)C(=O)N[C@@H](CCC(N)=O)C(=O)N[C@@H](Cc1ccccc1)C(=O)N[C@H](C(=O)N[C@@H](CC(=O)O)C(=O)N[C@@H](CCCCN)C(=O)N[C@@H](CC(=O)O)C(=O)N[C@@H](CCCCN)C(=O)N[C@@H](CC(=O)O)C(=O)N[C@@H](CC(N)=O)C(=O)N[C@H](C(=O)N[C@@H](C)C(=O)N1CCC[C@H]1C(=O)N[C@@H](CCCNC(=N)N)C(=O)N[C@@H](CO)C(=O)N[C@@H](CC(N)=O)C(=O)N[C@H](C(=O)N[C@@H](CO)C(=O)N1CCC[C@H]1C(=O)N[C@@H](CCC(N)=O)C(=O)NCC(=O)N1C[C@H](O)C[C@H]1C(N)=O)[C@@H](C)CC)C(C)C)[C@@H](C)O [compound 158] (H-GCRFGTCTVQRLAHQIYQFTDKDKDNVAPRSNISPQG[Hyp]-NH2; disulfide 2-7; N-terminus assumed)
EC50 (hAMY3 receptor): 0.048 nM
Max ThT signal (%) [1]: 6.300%

CC[C@H](C)[C@H](NC(=O)[C@H](CC(N)=O)NC(=O)[C@H](CO)NC(=O)[C@H](CCCNC(=N)N)NC(=O)[C@@H]1CCCN1C(=O)[C@H](C)NC(=O)[C@@H](NC(=O)[C@H](CC(N)=O)NC(=O)[C@H](CC(=O)O)NC(=O)[C@H](CCCCN)NC(=O)[C@H](CC(=O)O)NC(=O)[C@H](CCCCN)NC(=O)[C@H](CC(=O)O)NC(=O)[C@@H](NC(=O)[C@H](Cc1ccccc1)NC(=O)[C@H](CCC(N)=O)NC(=O)[C@H](Cc1ccc(O)cc1)NC(=O)[C@@H](NC(=O)[C@H](CCC(N)=O)NC(=O)[C@H](Cc1c[nH]cn1)NC(=O)[C@H](C)NC(=O)[C@H](CC(C)C)NC(=O)[C@H](CCCNC(=N)N)NC(=O)[C@H](CCC(N)=O)NC(=O)[C@@H](NC(=O)[C@@H](NC(=O)[C@@H]1CSSC[C@H](NC(=O)CN)C(=O)N[C@@H](CCCNC(=N)N)C(=O)N[C@@H]([C@@H](C)O)C(=O)NCC(=O)N[C@@H]([C@@H](C)O)C(=O)N1)[C@@H](C)O)C(C)C)[C@@H](C)CC)[C@@H](C)O)C(C)C)C(=O)NCC(=O)N1CCC[C@H]1C(=O)N[C@@H](CCC(N)=O)C(=O)NCC(=O)N1C[C@H](O)C[C@H]1C(N)=O [compound 165] (H-GCRTGTCTVQRLAHQIYQFTDKDKDNVAPRSNIGPQG[Hyp]-NH2; disulfide 2-7; N-terminus assumed)
EC50 (hAMY3 receptor): 0.054 nM
Max ThT signal (%) [1]: 4.800%

CC[C@H](C)[C@H](NC(=O)[C@H](CCC(N)=O)NC(=O)[C@H](Cc1c[nH]cn1)NC(=O)[C@H](C)NC(=O)[C@H](CC(C)C)NC(=O)[C@H](CCCNC(=N)N)NC(=O)[C@H](CCC(N)=O)NC(=O)[C@@H](NC(=O)[C@@H](NC(=O)[C@@H]1CSSC[C@H](NC(=O)CN)C(=O)N[C@@H](CCCNC(=N)N)C(=O)N[C@@H](Cc2ccccc2)C(=O)NCC(=O)N[C@@H]([C@@H](C)O)C(=O)N1)[C@@H](C)O)C(C)C)C(=O)N[C@@H](Cc1ccc(O)cc1)C(=O)N[C@@H](CCC(N)=O)C(=O)N[C@@H](Cc1ccccc1)C(=O)N[C@H](C(=O)N[C@@H](CC(=O)O)C(=O)N[C@@H](CCCCN)C(=O)N[C@@H](CC(=O)O)C(=O)N[C@@H](CCCCN)C(=O)N[C@@H](CC(=O)O)C(=O)N[C@@H](CC(N)=O)C(=O)N[C@H](C(=O)N[C@@H](C)C(=O)N1CCC[C@H]1C(=O)N[C@@H](CCCNC(=N)N)C(=O)N[C@H](C(=O)N[C@@H](CCCCN)C(=O)N[C@H](C(=O)NCC(=O)N1CCC[C@H]1C(=O)N[C@@H](CCC(N)=O)C(=O)NCC(=O)N1C[C@H](O)C[C@H]1C(N)=O)C(C)C)[C@@H](C)O)C(C)C)[C@@H](C)O [compound 45] (H-GCRFGTCTVQRLAHQIYQFTDKDKDNVAPRTKVGPQG[Hyp]-NH2; disulfide 2-7; N-terminus assumed)
EC50 (hAMY3 receptor): 0.011 nM
Max ThT signal (%) [1]: 3.000%

CC[C@H](C)[C@H](NC(=O)[C@H](CCC(N)=O)NC(=O)[C@H](Cc1c[nH]cn1)NC(=O)[C@H](C)NC(=O)[C@H](CC(C)C)NC(=O)[C@H](CCCNC(=N)N)NC(=O)[C@H](CCC(N)=O)NC(=O)[C@@H](NC(=O)[C@@H](NC(=O)[C@@H]1CSSC[C@H](NC(=O)CN)C(=O)N[C@@H](CCCNC(=N)N)C(=O)N[C@@H]([C@@H](C)O)C(=O)NCC(=O)N[C@@H]([C@@H](C)O)C(=O)N1)[C@@H](C)O)C(C)C)C(=O)N[C@@H](Cc1ccc(O)cc1)C(=O)N[C@@H](CCC(N)=O)C(=O)N[C@@H](Cc1ccccc1)C(=O)N[C@H](C(=O)N[C@@H](CC(=O)O)C(=O)N[C@@H](CCCCN)C(=O)N[C@@H](Cc1ccccc1)C(=O)N[C@@H](CCCCN)C(=O)N[C@@H](CC(=O)O)C(=O)N[C@@H](CC(N)=O)C(=O)N[C@H](C(=O)N[C@@H](C)C(=O)N1CCC[C@H]1C(=O)N[C@@H](CCCNC(=N)N)C(=O)N[C@@H](CO)C(=O)N[C@@H](CCCCN)C(=O)N[C@H](C(=O)N[C@@H](CO)C(=O)N1CCC[C@H]1C(=O)N[C@@H](CCC(N)=O)C(=O)N[C@H](C(=O)N[C@@H](Cc1c[nH]c2ccccc12)C(N)=O)[C@@H](C)O)[C@@H](C)CC)C(C)C)[C@@H](C)O [compound 184] (H-GCRTGTCTVQRLAHQIYQFTDKFKDNVAPRSKISPQTW-NH2; disulfide 2-7; N-terminus assumed)
EC50 (hAMY3 receptor): 0.09 nM
Max ThT signal (%) [1]: 0.800%
